IC50 data for 27 compounds are collected here from patent US10144732B2 (BIOGEN MA INC., priority 2014, dated 2018).

Structures can show the parent of a compound that is named as a salt.

In general, IC50 refers to the midpoint of a concentration-inhibition curve.

The target of one assay is T1, Human ATX protein (Homo sapiens, UniProt Q13822).
T1 construct: made in house
As to the kind of experiment: ATX biochemical assay (FRET, FS-3 substrate). To be noted: FRET assay, FS-3 2 μM, ATX 1.0 μg/mL, 30 minutes preincubation, 2 hours reaction at room temperature; read-out: IC50. The essentials:
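FRET read-out: cleavage of FS-3 (2 μM final) unquenches fluorescein, measured at 485/538 nm after 2 h at room temperature. Before substrate addition, in-house-expressed human autotaxin (1.0 μg/mL) sat with compound for 30 min in pH 7.4 Tris/NaCl/KCl/CaCl2/MgCl2 buffer containing fatty acid free-BSA at 1 mg/mL.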
As to `CC1(C)C(CC(=O)N2CCc3c(C(F)(F)F)nn(Cc4ccc(F)cc4)c3C2)CC1C(=O)O` (mixture of isomers) [Example 6-15, 3-(2-(1-(4-Fluorobenzyl)-3-(trifluoromethyl)-4,5-dihydro-1H-pyrazolo[3,4-c]pyridin-6(7H)-yl)-2-oxoethyl)-2,2-dimethylcyclobutanecarboxylic acid], the IC50 was no more than 100 nM. Regarding `O=C(CC1CCC(N2CCOCC2)CC1)N1CCc2c(C(F)(F)F)nn(Cc3ccc(F)cc3)c2C1` (stereo not drawn) [Example 22-10, 1-(1-(4-Fluorobenzyl)-3-(trifluoromethyl)-4,5-dihydro-1H-pyrazolo[3,4-c]pyridin-6(7H)-yl)-2-(4-morpholinocyclohexyl)ethanone TFA salt], the concentration for half-maximal inhibition (IC50) was no more than 100 nM. As to `CCOC(=O)C1CCCN(CC(=O)N2CCc3c(C(F)(F)F)nn(Cc4ccc(F)cc4)c3C2)CC1` (stereo not drawn) [Example 12-16, Ethyl 1-(2-(1-(4-fluorobenzyl)-3-(trifluoromethyl)-4,5-dihydro-1H-pyrazolo[3,4-c]pyridin-6(7H)-yl)-2-oxoethyl)azepane-4-carboxylate TFA salt], the IC50 was no more than 100 nM.

On to `N#C[C@H]1CC[C@@H](CC(=O)N2CCc3c(C(F)(F)F)nn(Cc4ccc(F)cc4)c3C2)CC1` [Example 21-1, cis-4-(2-(1-(4-Fluorobenzyl)-3-(trifluoromethyl)-4,5-dihydro-1H-pyrazolo[3,4-c]pyridin-6(7H)-yl)-2-oxoethyl)cyclohexanecarbonitrile], for which the IC50 was no more than 100 nM.

Regarding `CCOC(=O)[C@H]1CC[C@H](CC(=O)N2CCc3c(C(F)(F)F)nn(Cc4ccc(Cl)cc4F)c3C2)CC1` [Example 2-1, trans-Ethyl 4-(2-(1-(4-chloro-2-fluorobenzyl)-3-(trifluoromethyl)-4,5-dihydro-1H-pyrazolo[3,4-c]pyridin-6(7H)-yl)-2-oxoethyl)cyclohexanecarboxylate], the IC50 was no more than 100 nM. Still for that read-out and setting: the result for `CCOC(=O)C1CCC(CC(=O)N2CCc3c(C(F)(F)F)nn(CC4CCCCC4)c3C2)CC1` (stereo not drawn) [Example 1-16, Ethyl 4-(2-(1-(cyclohexylmethyl)-3-(trifluoromethyl)-4,5-dihydro-1H-pyrazolo[3,4-c]pyridin-6(7H)-yl)-2-oxoethyl)cyclohexanecarboxylate] reads no more than 100 nM. With `O=C(O)C1CCC(CC(=O)N2CCc3cnn(Cc4ccc(F)cc4)c3C2)CC1` (single isomer, unassigned) [Example 7-15, 4-(2-(1-(4-Fluorobenzyl)-4,5-dihydro-1H-pyrazolo[3,4-c]pyridin-6(7H)-yl)-2-oxoethyl)cyclohexanecarboxylic acid], the IC50 is no more than 100 nM.

Take `O=C(O)C1CCC(CC(=O)N2CCc3c(C(F)(F)F)nn(Cc4ccccc4F)c3C2)CC1` (mixture of isomers) [Example 6-3, 4-(2-(1-(2-Fluorobenzyl)-3-(trifluoromethyl)-4,5-dihydro-1H-pyrazolo[3,4-c]pyridin-6(7H)-yl)-2-oxoethyl)cyclohexanecarboxylic acid]: the IC50 was no more than 100 nM. With `O=C(O)C1CCN(CC(=O)N2CCc3c(C(F)(F)F)nn(Cc4ccc(F)cc4)c3C2)C1` (stereo not drawn) [Example 13-12, 1-(2-(1-(4-Fluorobenzyl)-3-(trifluoromethyl)-4,5-dihydro-1H-pyrazolo[3,4-c]pyridin-6(7H)-yl)-2-oxoethyl)pyrrolidine-3-carboxylic acid], the IC50 is no more than 100 nM. For `O=C(C[C@H]1CC[C@H](C(=O)O)CC1)N1CCc2c(C(F)(F)F)nn(Cc3ccc(Cl)s3)c2C1` [Example 5-17, trans-4-(2-(1-((5-chlorothiophen-2-yl)methyl)-3-(trifluoromethyl)-4,5-dihydro-1H-pyrazolo[3,4-c]pyridin-6(7H)-yl)-2-oxoethyl)cyclohexanecarboxylic acid], the IC50 is no more than 100 nM. As to `O=C(C[C@H]1CC[C@H](C(=O)O)CC1)N1CCc2c(C(F)(F)F)nn(Cc3ccncc3)c2C1` [Example 5-24, trans-4-(2-Oxo-2-(1-(pyridin-4-ylmethyl)-3-(trifluoromethyl)-4,5-dihydro-1H-pyrazolo[3,4-c]pyridin-6(7H)-yl)ethyl)cyclohexanecarboxylic acid], the IC50 is no more than 100 nM. On to `O=C(C[C@H]1CC[C@H](C(=O)O)CC1)N1CCc2c(C(F)(F)F)nn(Cc3ccc(Cl)cc3F)c2C1` [Example 5-1, trans-4-(2-(1-(4-Chloro-2-fluorobenzyl)-3-(trifluoromethyl)-4,5-dihydro-1H-pyrazolo[3,4-c]pyridin-6(7H)-yl)-2-oxoethyl)cyclohexanecarboxylic acid], for which the IC50 is no more than 100 nM. Same read-out and setting: the result for `CCOC(=O)C1CCCN(CC(=O)N2CCc3c(C(F)(F)F)nn(Cc4ccc(F)cc4)c3C2)C1` (stereo not drawn) [Example 12-5, Ethyl 1-(2-(1-(4-fluorobenzyl)-3-(trifluoromethyl)-4,5-dihydro-1H-pyrazolo[3,4-c]pyridin-6(7H)-yl)-2-oxoethyl)piperidine-3-carboxylate] reads no more than 100 nM. `O=C(CC1C2CC3CC1CC(C(=O)O)(C3)C2)N1CCc2c(C(F)(F)F)nn(Cc3ccc(F)cc3)c2C1` (stereo not drawn) [Example 5-55]: the IC50 is no more than 100 nM.

For `O=C(O)CCC(=O)N1CCc2c(C(F)(F)F)nn(Cc3ccc(Cl)cc3F)c2C1` [Example 14-3, 4-(1-(4-Chloro-2-fluorobenzyl)-3-(trifluoromethyl)-4,5-dihydro-1H-pyrazolo[3,4-c]pyridin-6(7H)-yl)-4-oxobutanoic acid], the IC50 was no more than 100 nM. With `O=C(O)C1CCC(CC(=O)N2CCc3c(C(F)(F)F)nn(Cc4ccc(F)cc4)c3C2)C1` (mixture of isomers) [Example 6-7, 3-(2-(1-(4-Fluorobenzyl)-3-(trifluoromethyl)-4,5-dihydro-1H-pyrazolo[3,4-c]pyridin-6(7H)-yl)-2-oxoethyl)cyclopentanecarboxylic acid], the IC50 was no more than 100 nM. Turning to `O=C(Cc1ccncc1)N1CCc2c(C(F)(F)F)nn(Cc3ccc(Cl)cc3F)c2C1` [Example 1-7, 1-(1-(4-Chloro-2-fluorobenzyl)-3-(trifluoromethyl)-4,5-dihydro-1H-pyrazolo[3,4-c]pyridin-6(7H)-yl)-2-(pyridin-4-yl)ethanone], the IC50 was greater than 10000 nM. `O=C(CC1CCN(c2ccncc2)CC1)N1CCc2c(C(F)(F)F)nn(Cc3ccc(F)cc3)c2C1` [Example 18-4, 1-(1-(4-Fluorobenzyl)-3-(trifluoromethyl)-4,5-dihydro-1H-pyrazolo[3,4-c]pyridin-6(7H)-yl)-2-(1-(pyridin-4-yl)piperidin-4-yl)ethanone TFA salt]: the IC50 was no more than 100 nM. Still for that read-out and setting: the result for `O=C(O)C1CC2(CC(CC(=O)N3CCc4c(C(F)(F)F)nn(Cc5ccc(F)cc5)c4C3)C2)C1` (stereo not drawn) [Example 6-13, 6-(2-(1-(4-Fluorobenzyl)-3-(trifluoromethyl)-4,5-dihydro-1H-pyrazolo[3,4-c]pyridin-6(7H)-yl)-2-oxoethyl)spiro[3.3]heptane-2-carboxylic acid] reads no more than 100 nM; that for `COC(=O)C1CCC(C(=O)N2CCc3c(C(F)(F)F)nn(Cc4ccc(F)cc4)c3C2)CC1` (stereo not drawn) [Example 1-22, Methyl 4-(1-(4-fluorobenzyl)-3-(trifluoromethyl)-4,5,6,7-tetrahydro-1H-pyrazolo[3,4-c]pyridine-6-carbonyl)cyclohexanecarboxylate], greater than 10000 nM. `O=C(CN1CCCCC1)N1CCc2c(C(F)(F)F)nn(Cc3ccc(Cl)cc3F)c2C1` [Example 12-2, 1-(1-(4-Chloro-2-fluorobenzyl)-3-(trifluoromethyl)-4,5-dihydro-1H-pyrazolo[3,4-c]pyridin-6(7H)-yl)-2-(piperidin-1-yl)ethanone]: the IC50 was no more than 100 nM.

Turning to `O=C(O)CN1CCC(C(=O)N2CCc3c(C(F)(F)F)nn(Cc4ccc(Cl)cc4F)c3C2)C1` (stereo not drawn) [Example 15-5, 2-(3-(1-(4-Chloro-2-fluorobenzyl)-3-(trifluoromethyl)-4,5,6,7-tetrahydro-1H-pyrazolo[3,4-c]pyridine-6-carbonyl)pyrrolidin-1-yl)acetic acid TFA salt], the IC50 is no more than 100 nM.

Take `CCCC1CC(CC(=O)N2CCc3c(C(F)(F)F)nn(Cc4ccc(F)cc4)c3C2)CCN1C(=O)OC(C)(C)C` (stereo not drawn) [Example 8-9, tert-Butyl 4-(2-(1-(4-fluorobenzyl)-3-(trifluoromethyl)-4,5-dihydro-1H-pyrazolo[3,4-c]pyridin-6(7H)-yl)-2-oxoethyl)-2-propylpiperidine-1-carboxylate]: the IC50 was no more than 100 nM. Take `O=C(O)CC1CN(CC(=O)N2CCc3c(C(F)(F)F)nn(Cc4ccc(F)cc4)c3C2)C1` [Example 13-23, 2-(1-(2-(1-(4-Fluorobenzyl)-3-(trifluoromethyl)-4,5-dihydro-1H-pyrazolo[3,4-c]pyridin-6(7H)-yl)-2-oxoethyl)azetidin-3-yl)acetic acid TFA salt]: the IC50 was no more than 100 nM. `O=C(C[C@H]1CC[C@@H](C(=O)O)CC1)N1CCc2c(C(F)(F)F)nn(Cc3ccc(Cl)cc3Cl)c2C1` [Example 7-8, cis-4-(2-(1-(2,4-dichlorobenzyl)-3-(trifluoromethyl)-4,5-dihydro-1H-pyrazolo[3,4-c]pyridin-6(7H)-yl)-2-oxoethyl)cyclohexanecarboxylic acid]: the IC50 is no more than 100 nM. `CC1CCN(CC(=O)N2CCc3c(C(F)(F)F)nn(Cc4ccc(F)cc4)c3C2)CC1` [Example 12-14, 1-(1-(4-Fluorobenzyl)-3-(trifluoromethyl)-4,5-dihydro-1H-pyrazolo[3,4-c]pyridin-6(7H)-yl)-2-(4-methylpiperidin-1-yl)ethanone]: the IC50 is no more than 100 nM.

Still in this assay, the particulars now being: IC50, FRET assay, FS-3 2 μM, ATX 1.0 μg/mL, 30 minutes preincubation, 2 hours reaction at room temperature.
`O=C(O)C1CC2CCC(C1)N2CC(=O)N1CCc2c(C(F)(F)F)nn(Cc3ccc(F)cc3)c2C1` (stereo not drawn) [Example 13-5, 8-(2-(1-(4-Fluorobenzyl)-3-(trifluoromethyl)-4,5-dihydro-1H-pyrazolo[3,4-c]pyridin-6(7H)-yl)-2-oxoethyl)-8-azabicyclo[3.2.1]octane-3-carboxylic acid] came in with an IC50 of no more than 100 nM.
